From ChEMBL document CHEMBL3045317, “Synthesis of novel analogues on the -carbon of houttuyfonate and SAR analysis of antibacterial activity with MOPAC” (Med Chem Res, 2009)
Calls of active or inactive are those of the source. No cut-off for these calls is given here.

Tests used:
Assay type in all cases: functional, organism-based
Staphylococcus aureus = assay: Antimicrobial activity against Staphylococcus aureus ATCC 25923 after 24 hr by broth microdilution method
Bacillus subtilis = assay: Antimicrobial activity against Bacillus subtilis CCRC 10255 after 24 hr by broth microdilution method
Shigella dysenteriae = assay: Antimicrobial activity against Shigella dysenteriae NI-51570 after 24 hr by broth microdilution method
Escherichia coli = assay: Antimicrobial activity against Escherichia coli ATCC 25922 after 24 hr by broth microdilution method
Pseudomonas aeruginosa = assay: Antimicrobial activity against Pseudomonas aeruginosa ATCC 27853 after 24 hr by broth microdilution method
Proteus mirabilis = assay: Antimicrobial activity against Proteus mirabilis ATCC 49027 after 24 hr by broth microdilution method
Salmonella typhi = assay: Antimicrobial activity against Salmonella enterica subsp. enterica serovar Typhi ATCC 19430 after 24 hr by broth microdilution method

Row | Compound | Activity (Staphylococcus aureus) | Activity (Bacillus subtilis) | Activity (Shigella dysenteriae) | Activity (Escherichia coli) | Activity (Pseudomonas aeruginosa) | Activity (Proteus mirabilis) | Activity (Salmonella typhi)
1 | CCCCCCCCCCCC(=O)CC=O | Active | Active | – | – | – | – | –
2 | CCCCCCCC(=O)C(C=O)CC (stereo not drawn) | Active | Active | inactive | inactive | inactive | inactive | inactive
3 | CCCCCCCCCC(=O)CC=O | Active | Active | – | – | – | – | –
4 | CCCCCCCC(=O)CC=O | Active | Active | – | – | – | – | –
